In data set [1] the test system is MTLE mice. In words: MTLE mice acute screen evaluation. Type of data set: in vivo.
The subject of data set [2] is CYP3A1 (pregnane X receptor). In words: In vitro metabolic gene induction studies. Type of data set: cell-based, rat. As for the experimental part: Test 28 - In Vitro Metabolic Gene lnduction Studies
:.!,iIir:- i- :: ar!-'{}-: i
Solvent Code: DMSO Solvent Prep: Unit: uM
Cell line source: Puracyp Molecular 257.7590
Date Staded: 05+eb-20'10 Date Completed: 15-Feb-2010 Weight:
Reference: Lamb bool#8 pg. 77 […]
lsoform Code: CYP3A1 Cell line: RPXR lnduc60n mechanism:pregnane X receptor
Concentration lnduction Cell […]
Note: Box checked if data is significantty different.
Max induction 2 fold @ 200uM
(calculated): signlficant decrease in vlabllity at this conc€nbaffon in vitro.
(1 picture or pasted object on this page, not shown here)

Data set [3] concerns rats. Kind of data set: Rotarod / TOX (neurotoxicity). Particulars: for Rotarod TD50: rats.
Method: The assays were carried out within the Epilepsy Therapy Screening Program (ETSP, previously known as the Anticonvulsant Screening Program, ASP), Epilepsy Branch, National Institute of Neurological and Communicative Disorders and Stroke, National Institutes of Health in Rockville, MD, USA [23].
The obtained compounds were screened for antiseizure activity and neurotoxicity in vivo within the Epilepsy Therapy Screening Program (ETSP, previously known as the Anticonvulsant Screening Program, ASP), Epilepsy Branch, National Institute of Neurological and Communicative Disorders and Stroke, National Institutes of Health in Rockville, MD, USA [23].
The nature of data set [4]: Pharmacokinetics in plasma. Type of data set: in vivo, rats. Particulars: for bioavailability / AUC(0-t) / C0 / MRT / clearance / Vd / k el / CL/F / Cmax / Tmax / Vd/F: male, Wistar, rat, plasma; for bioavailability: po; for bioavailability / AUC(0-t) / C0 / MRT / clearance / Vd / k el / CL/F / Cmax / Tmax / Vd/F / t0.5λz: rats; for Vd: read-out: Vz; for k el: read-out: λz (converted); for Vd/F: read-out: Vz/F. As for the experimental part:
Pharmacokinetic study design. Male Wistar rats (250–300 g) bred in-house from progenitors obtained from Charles River Laboratories (Sulzfed, Germany) were used in this study. Animals were fasted overnight prior to drug administration but had free access to water. […] Moreover, this compound dissolved in the same solvent was administered orally (po) by oral gavage at two doses (50 and 100 mg/kg) (n = 4). Blood samples were collected from the catheter at various time points up to 5 h. […] The animals were anaesthetized (50/7.5 mg/kg ketamine/xylazine, ip) and sacrificed by decapitation at 5, 15, 30, 60, 120, 180, and 300 min after compound administration (n = 4 per time point). Blood was collected into heparinized tubes and organs such as liver, brain, lungs, kidneys, and heart were harvested. The blood samples were centrifuged at 4000 rpm for 10 min (EBA 12R, Hettich, Germany). Plasma and organs were stored at − 80 °C until analysis.
Determination of KM-408 in plasma and tissue homogenates. Before analysis, tissue samples were homogenized in phosphate-buffered saline, pH 7.4 (1:4, w/v) with a tissue homogenizer (TH220; Omni International, Inc., Warrenton, VA, USA). Plasma (100 μL) or homogenate samples (500 μL) were mixed with an internal standard (IS) solution (R-( +)-propranolol, 4 μg/mL in methanol). Then, 20 μL of sodium carbonate (0.125 M) was added to each tube and the samples were extracted with 3 mL of diethyl ether by vortexing for 1 min. After centrifugation (3000 rpm, 15 min), the organic phase was transferred to a new tube and evaporated to dryness under a gentle stream nitrogen at 37 °C in a water bath. The dry residue was reconstituted in 100 μL of acetonitrile. Subsequently, 50 μL of 0.2 M borate buffer (pH = 7.0) and 50 μL of 6 mM FMOC-Cl solution in acetonitrile were added. After vortex-mixing for 1 min, the samples were kept for 30 min at 40 °C in a dry heat sterilizer (model MOV-112S, Sanyo, Japan). The reaction was stopped by the addition of 0.1 M solution of glycine in water (30 μL) and vortexing for 1 min. The reaction mixture was transferred directly into the autosampler vials. The chromatographic system (Merck-HITACHI, Japan) consisted of an L-2485 spectrofluorimetric detector operating at the excitation and emission wavelengths of 267 and 316 nm, respectively, an L-2130 pump, an L-2350 column oven, and an L-2200 autosampler. The EZChrom Elite Client/Server version 3.2 (Agilent Technologies Inc.) was used for data acquisition and processing. […] The column temperature was maintained at 50 °C. The mobile phase consisted of a mixture of acetonitrile and water (67:33, v/v), and pumped at a flow rate of 1 mL/min.
Pharmacokinetic data analysis. Plasma and tissue concentration versus time profiles were analyzed by the non-compartmental approach in Phoenix WinNonlin v. 6.3 software (Pharsight Corporation, Mountain View, CA, USA). The peak concentration (Cmax) and the time to reach Cmax (tmax) were obtained directly from individual concentration–time profiles. The initial concentration (C0) after an iv dosing was obtained by extrapolation to zero time. The linear trapezoidal rule was applied to calculate the areas under the concentration–time curve (AUC) from the time of dosing to the last measured data point (AUC0-t) or infinity (AUC0-∞). The terminal slope (λz) was estimated by linear regression and the terminal half-life (t0.5λz) was calculated as ln2/λz. The volume of distribution based on the terminal phase (Vz) was calculated as: Dose/(λz ∙ AUC0-∞), whereas clearance (CL) was obtained from the following equation: Dose/AUC0-∞. The mean residence time (MRT) was defined as: AUMC0-∞/AUC0-∞, where AUMC is the area under the first moment curve. The absolute bioavailability (Fa) was calculated according to the equation: (AUCpo./Dosepo)/(AUCiv/Doseiv).

Where a name gives a salt, the structure may show the parent alone. Read-outs that look alike come from different tables or passages of the source.

For orientation: EC50 means the midpoint of the concentration-response curve. `CCC(CO)NCCOc1c(C)cccc1Cl` (stereo not drawn) [Compound 4, R,S-2-((2-(2-chloro-6-methylphenoxy)ethyl)amino)butan-1-ol]: the “MTLE mice acute screen: % of baseline” value in data set [1] (at 30 mg/kg, recording period 5–25 min) is 80.8 ± 16.8 % of baseline. Besides, the “MTLE mice acute screen TPE” value in data set [1] (mice, ip) is on record as 0.25 h. Besides, in data set [2] (@ 200uM), the “Max induction (calculated)” value was 2 fold. Also, the EC50 in data set [2] (RPXR cell line, read-out: EC50 (calculated)) is 74 µM. In addition, the “Rotarod TD50” value in data set [3] (ip, listed as 348014) is less than 50 mg/kg; in data set [3] (po) it was more than 240 mg/kg. The “TOX TD50” value in data set [3] (report of 16-Aug-2004 (rats, po)) is more than 60 mg/kg.

Usually AUC(0-t) stands for exposure summed from dosing to a finite time, without extrapolation to infinity. Lower therefore signals low exposure. For orientation: MRT means a mean duration of stay, worked out from the concentration-time curve. The term clearance denotes a measure of how efficiently the substance is removed, as volume per time. A word on the CL/F: it is the apparent clearance, not corrected for the fraction that reaches the circulation. As usually defined, the Cmax is the peak of the concentration-time curve. As a reminder, the Tmax is the time at which the peak concentration occurs. Consider `CCC(CO)NCCOc1c(C)cccc1Cl` (stereo not drawn) [KM-408, R,S-2-((2-(2-chloro-6-methylphenoxy)ethyl)amino)butan-1-ol hydrochloride], for which the plasma concentration in data set [4] (5 mg/kg iv, immediately after administration) was 1.48*10^–5 M. Also, the bioavailability in data set [4] (50 mg/kg, po 50 mg/kg, read-out: F) stood at 3.9%. Moreover, the bioavailability in data set [4] (100 mg/kg, po 100 mg/kg, read-out: F) stood at 3.6%. Also, the bioavailability in data set [4] (100 mg/kg, po 50 and 100 mg/kg, read-out: absolute bioavailability) was 3.6 to 3.9%. In data set [4] (iv 1 mg/kg), this molecule had an exposure AUC(0-t) of 207 ng·h/mL, a C0 of 371 ng/mL, an MRT of 51.7 min and a clearance of 80 mL/min/kg. Moreover, in data set [4] (iv 1 mg/kg), the Vd was determined as 2.53 L/kg, the k el is 0.000533 s⁻¹ and the t0.5λz was 21.80 min. In data set [4] (iv 5 mg/kg), the AUC(0-t) was 1210 ng·h/mL, the C0 amounted to 4360 ng/mL, the MRT was 43.5 min and the clearance worked out at 70 mL/min/kg. In data set [4] (iv 5 mg/kg), the Vd was determined as 3.77 L/kg, the k el was 0.0003 s⁻¹ and the t0.5λz is 37.94 min. In data set [4] (iv 10 mg/kg), this molecule showed an AUC(0-t) of 2720 ng·h/mL, a C0 of 5330 ng/mL, an MRT of 42.3 min and a clearance of 60 mL/min/kg. Moreover, in data set [4] (iv 10 mg/kg), the Vd came to 2.3 L/kg, the k el was 0.00045 s⁻¹ and the t0.5λz is given as 26.02 min. In data set [4] (po 50 mg/kg), the AUC(0-t) is 430 ng·h/mL, the CL/F was determined as 1950 mL/min/kg, the maximum concentration (Cmax) was determined as 313 ng/mL and the MRT is 79.1 min. Further, in data set [4] (po 50 mg/kg), the time to peak (Tmax) is 30 min, the Vd/F is 80.3 L/kg, the k el is 0.000383 s⁻¹ and the t0.5λz is reported as 30.59 min. In data set [4] (po 100 mg/kg), the area under the curve AUC(0-t) is 807 ng·h/mL, the CL/F was 2060 mL/min/kg, the concentration peaked (Cmax) at 573 ng/mL and the mean residence time (MRT) was 83 min. Besides, in data set [4] (po 100 mg/kg), the Tmax is 30 min, the Vd/F amounted to 104 L/kg, the k el is 0.000333 s⁻¹ and the t0.5λz was 34.98 min.

These data come from article PMC9889419 (Pharmacological Reports, 2022).
